Measured values taken from ChEMBL document CHEMBL1909046, “DrugMatrix in vitro pharmacology data”.

Columns and labels:
[1] = molecular target: Aldo-keto reductase family 1 member B1 (Rattus norvegicus, UniProt P07943); assay type: tissue-based, Lens of camera-type eye;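 further: inhibition of aldose reductase enzyme activity, measured with DL-glyceraldehyde as the substrate; in other assays of this panel Not Active means under 50% inhibition at 10 µM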
B2 bradykinin receptor = molecular target: T1, B2 bradykinin receptor (Homo sapiens, UniProt P30411); assay type: cell membranes, Membrane; conditions: chem-1; further: in other assays of this panel Not Active means under 50% inhibition at 10 µM
T1 sequence (P30411 whole entry): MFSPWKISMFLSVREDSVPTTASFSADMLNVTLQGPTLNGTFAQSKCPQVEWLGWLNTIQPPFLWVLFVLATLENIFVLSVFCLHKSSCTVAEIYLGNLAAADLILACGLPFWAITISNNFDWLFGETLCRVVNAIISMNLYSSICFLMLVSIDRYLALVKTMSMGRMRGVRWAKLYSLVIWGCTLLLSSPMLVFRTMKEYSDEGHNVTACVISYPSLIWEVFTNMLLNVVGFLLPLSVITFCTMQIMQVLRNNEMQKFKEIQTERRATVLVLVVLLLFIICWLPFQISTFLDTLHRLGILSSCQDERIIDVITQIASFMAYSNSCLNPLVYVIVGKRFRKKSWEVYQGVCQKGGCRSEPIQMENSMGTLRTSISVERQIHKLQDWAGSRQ

[2] = DRUGMATRIX: Serotonin (5-Hydroxytryptamine) 5-HT3 radioligand binding (ligand: [3H] GR-65630); assay type: cell membranes, Membrane; conditions: hek293; Not Active = under 50% inhibition at 10 µM
[3] = DRUGMATRIX: Sigma2 radioligand binding (ligand: [3H] Ifenprodil); assay type: cell membranes, Rattus norvegicus, Wistar, Brain, Membrane; conditions: Not Active = under 50% inhibition at 10 µM
[4] = molecular target: Vascular endothelial growth factor receptor 1 (Homo sapiens, UniProt P17948); assay: biochemical; assay type: cell-based, HUVEC; conditions: huvec; further: in other assays of this panel Not Active means under 50% inhibition at 10 µM
[5] = DRUGMATRIX: Purinergic P2X radioligand binding (ligand: [3H] alpha, beta-Methylene-ATP); assay type: cell membranes, Oryctolagus cuniculus, New Zealand albino, Urinary bladder, Membrane; conditions: Not Active = under 50% inhibition at 10 µM

Vascular endothelial growth factor receptor 1, sequence (P17948 whole entry): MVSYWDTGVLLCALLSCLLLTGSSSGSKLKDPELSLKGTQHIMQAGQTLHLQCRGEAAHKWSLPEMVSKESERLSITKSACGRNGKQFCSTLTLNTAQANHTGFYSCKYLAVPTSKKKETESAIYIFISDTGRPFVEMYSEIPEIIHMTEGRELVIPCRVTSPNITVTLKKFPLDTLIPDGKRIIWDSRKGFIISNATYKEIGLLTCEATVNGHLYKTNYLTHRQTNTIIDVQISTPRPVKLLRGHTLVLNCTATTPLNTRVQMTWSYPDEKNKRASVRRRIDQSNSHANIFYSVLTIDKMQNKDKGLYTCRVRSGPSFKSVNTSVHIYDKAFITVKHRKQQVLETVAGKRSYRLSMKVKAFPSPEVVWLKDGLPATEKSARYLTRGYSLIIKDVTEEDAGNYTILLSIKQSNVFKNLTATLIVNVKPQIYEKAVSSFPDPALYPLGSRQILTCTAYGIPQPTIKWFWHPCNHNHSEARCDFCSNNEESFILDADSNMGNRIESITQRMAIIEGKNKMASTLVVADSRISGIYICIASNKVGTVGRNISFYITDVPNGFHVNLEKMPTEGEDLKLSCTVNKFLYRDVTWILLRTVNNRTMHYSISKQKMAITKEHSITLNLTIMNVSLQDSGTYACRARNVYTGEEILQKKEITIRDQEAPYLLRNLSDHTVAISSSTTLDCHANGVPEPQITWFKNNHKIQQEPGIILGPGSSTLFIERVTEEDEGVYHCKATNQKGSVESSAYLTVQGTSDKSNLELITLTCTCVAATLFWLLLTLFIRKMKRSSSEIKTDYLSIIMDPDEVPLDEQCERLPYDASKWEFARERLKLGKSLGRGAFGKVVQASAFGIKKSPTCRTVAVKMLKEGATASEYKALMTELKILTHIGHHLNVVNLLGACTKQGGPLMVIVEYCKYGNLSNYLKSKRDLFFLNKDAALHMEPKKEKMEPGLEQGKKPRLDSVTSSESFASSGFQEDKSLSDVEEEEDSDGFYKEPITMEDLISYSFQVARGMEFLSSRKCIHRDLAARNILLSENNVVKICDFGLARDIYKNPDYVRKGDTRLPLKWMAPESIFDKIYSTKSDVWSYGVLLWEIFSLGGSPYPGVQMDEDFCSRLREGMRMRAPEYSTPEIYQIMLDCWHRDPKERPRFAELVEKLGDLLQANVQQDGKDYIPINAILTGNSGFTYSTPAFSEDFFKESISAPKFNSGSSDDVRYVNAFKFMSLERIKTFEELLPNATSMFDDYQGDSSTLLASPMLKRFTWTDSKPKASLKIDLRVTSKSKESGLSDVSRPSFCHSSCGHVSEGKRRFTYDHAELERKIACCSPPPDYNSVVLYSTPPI

CCCNCC(O)COc1ccccc1C(=O)CCc1ccccc1 (stereo not given) [PROPAFENONE]
Not Active: IC50 [1] | IC50 (B2 bradykinin receptor) | IC50 [2] | Ki [2] | IC50 [3] | Ki [3] | IC50 [4] | IC50 [5] | Ki [5]

CC[C@H]1CN2CCc3cc(OC)c(OC)cc3[C@@H]2C[C@@H]1C[C@H]1NCCc2cc(OC)c(OC)cc21 [EMETINE]
Not Active: IC50 [1] | IC50 (B2 bradykinin receptor) | IC50 [2] | Ki [2] | IC50 [3] | Ki [3] | IC50 [4] | IC50 [5] | Ki [5]

COc1cc([C@@H]2c3cc4c(cc3[C@@H](O[C@@H]3O[C@@H]5CO[C@@H](C)O[C@H]5[C@H](O)[C@H]3O)[C@H]3COC(=O)[C@H]23)OCO4)cc(OC)c1O [ETOPOSIDE]
Not Active: IC50 [1] | IC50 (B2 bradykinin receptor) | IC50 [2] | Ki [2] | IC50 [3] | Ki [3] | IC50 [4] | IC50 [5] | Ki [5]

COc1ccc(C(=O)N2CCCC2=O)cc1
Not Active: IC50 [1] | IC50 (B2 bradykinin receptor) | IC50 [2] | Ki [2] | IC50 [3] | Ki [3] | IC50 [4] | IC50 [5] | Ki [5]

Cc1c(OCC(F)(F)F)ccnc1C[S+]([O-])c1nc2ccccc2[nH]1 (stereo not given) [LANSOPRAZOLE]
Not Active: IC50 [1] | IC50 (B2 bradykinin receptor) | IC50 [2] | Ki [2] | IC50 [3] | Ki [3] | IC50 [4] | IC50 [5] | Ki [5]

O=C(c1ccccc1C(F)(F)F)N1CCC(Cc2ccccc2)CC1
Not Active: IC50 [1] | IC50 (B2 bradykinin receptor) | IC50 [2] | Ki [2] | IC50 [3] | Ki [3] | IC50 [4] | IC50 [5] | Ki [5]

CC(C)(C)NC(=O)[C@H]1CC[C@H]2[C@@H]3CC[C@H]4NC(=O)C=C[C@]4(C)[C@H]3CC[C@]12C [FINASTERIDE]
Not Active: IC50 [1] | IC50 (B2 bradykinin receptor) | IC50 [2] | Ki [2] | IC50 [3] | Ki [3] | IC50 [4] | IC50 [5] | Ki [5]

CC(=O)[C@@]1(O)CC[C@H]2[C@@H]3CCC4=CC(=O)CC[C@]4(C)[C@H]3CC[C@@]21C [HYDROXYPROGESTERONE]
Not Active: IC50 [1] | IC50 (B2 bradykinin receptor) | IC50 [2] | Ki [2] | IC50 [3] | Ki [3] | IC50 [4] | IC50 [5] | Ki [5]

O=C(N/N=C/c1ccc([N+](=O)[O-])o1)c1cc([N+](=O)[O-])cc([N+](=O)[O-])c1O [NIFURSOL]
Not Active: IC50 [1] | IC50 (B2 bradykinin receptor) | IC50 [2] | Ki [2] | IC50 [3] | Ki [3] | IC50 [4] | IC50 [5] | Ki [5]

CC(C)NCC(O)COc1cccc2[nH]ccc12 (stereo not given) [PINDOLOL]
Not Active: IC50 [1] | IC50 (B2 bradykinin receptor) | IC50 [2] | Ki [2] | IC50 [3] | Ki [3] | IC50 [4] | IC50 [5] | Ki [5]

NCCCC(O)(P(=O)(O)O)P(=O)(O)O [ALENDRONIC ACID]
Not Active: IC50 [1] | IC50 (B2 bradykinin receptor) | IC50 [2] | Ki [2] | IC50 [3] | Ki [3] | IC50 [4] | IC50 [5] | Ki [5]

COc1ccc2c3c1O[C@H]1C[C@@H](O)C=C[C@@]31CCN(C)C2 [GALANTAMINE]
Not Active: IC50 [1] | IC50 (B2 bradykinin receptor) | IC50 [2] | Ki [2] | IC50 [3] | Ki [3] | IC50 [4] | IC50 [5] | Ki [5]

COC1=C(OC)C(=O)C(CCCCCCCCCCO)=C(C)C1=O [IDEBENONE]
Not Active: IC50 [1] | IC50 (B2 bradykinin receptor) | IC50 [2] | Ki [2] | IC50 [3] | Ki [3] | IC50 [4] | IC50 [5] | Ki [5]

COc1ccc2[nH]cc(CCNC(C)=O)c2c1 [MELATONIN]
Not Active: IC50 [1] | IC50 (B2 bradykinin receptor) | IC50 [2] | Ki [2] | IC50 [3] | Ki [3] | IC50 [4] | IC50 [5] | Ki [5]

CC(=O)O[C@H]1C(=O)[C@@]2(C)[C@H]([C@H](OC(=O)c3ccccc3)[C@]3(O)C[C@H](OC(=O)[C@H](O)[C@@H](NC(=O)c4ccccc4)c4ccccc4)C(C)=C1C3(C)C)[C@]1(OC(C)=O)CO[C@@H]1C[C@@H]2O [PACLITAXEL]
Not Active: IC50 [1] | IC50 (B2 bradykinin receptor) | IC50 [2] | Ki [2] | IC50 [3] | Ki [3] | IC50 [4] | IC50 [5] | Ki [5]

Oc1c(Cl)cc(Cl)c(Cl)c1Cc1c(O)c(Cl)cc(Cl)c1Cl [HEXACHLOROPHENE]
Not Active: IC50 [1] | IC50 (B2 bradykinin receptor) | IC50 [2] | Ki [2] | IC50 [3] | Ki [3] | IC50 [4] | IC50 [5] | Ki [5]

CC(C)=CCC/C(C)=C/CO [GERANIOL]
Not Active: IC50 [1] | IC50 (B2 bradykinin receptor) | IC50 [2] | Ki [2] | IC50 [3] | Ki [3] | IC50 [4] | IC50 [5] | Ki [5]

CN1[C@@H]2CC[C@H]1C[C@@H](OC(=O)C(CO)c1ccccc1)C2 (stereo not given in full) [ATROPINE]
Not Active: IC50 [1] | IC50 (B2 bradykinin receptor) | IC50 [2] | Ki [2] | IC50 [3] | Ki [3] | IC50 [4] | IC50 [5] | Ki [5]

C[C@@H]1C[C@H]2[C@@H]3CCC4=CC(=O)C=C[C@]4(C)[C@@]3(F)[C@@H](O)C[C@]2(C)[C@@]1(O)C(=O)CO [DEXAMETHASONE]
Not Active: IC50 [1] | IC50 (B2 bradykinin receptor) | IC50 [2] | Ki [2] | IC50 [3] | Ki [3] | IC50 [4] | IC50 [5] | Ki [5]

Nc1ccn([C@@H]2O[C@H](CO)[C@@H](O)[C@@H]2O)c(=O)n1 [CYTARABINE]
Not Active: IC50 [1] | IC50 (B2 bradykinin receptor) | IC50 [2] | Ki [2] | IC50 [3] | Ki [3] | IC50 [4] | IC50 [5] | Ki [5]
